From ChEMBL document CHEMBL5226342, “Novel Reversible-Binding PET Ligands for Imaging Monoacylglycerol Lipase Based on the Piperazinyl Azetidine Scaffold” (J Med Chem, 2021)
The source made the active and inactive calls. The rule behind the calls is not given here.

How the values were obtained:
[1] = target: T1, Monoglyceride lipase (Rattus norvegicus) (UniProt Q8R431); experiment: Binding affinity to MAGL in rat hippocampus incubated for 1 hr in presence of MAGL inhibitor, (1-(4-fluorophenyl)-1H-indol-5-yl)(3-(4-(pyrimidin-2-yl)piperazin-1-yl)azetidin-1-yl)methanone by autoradiography; format: tissue-based; conditions: tested as the 18F-labelled form
T1 sequence (whole entry): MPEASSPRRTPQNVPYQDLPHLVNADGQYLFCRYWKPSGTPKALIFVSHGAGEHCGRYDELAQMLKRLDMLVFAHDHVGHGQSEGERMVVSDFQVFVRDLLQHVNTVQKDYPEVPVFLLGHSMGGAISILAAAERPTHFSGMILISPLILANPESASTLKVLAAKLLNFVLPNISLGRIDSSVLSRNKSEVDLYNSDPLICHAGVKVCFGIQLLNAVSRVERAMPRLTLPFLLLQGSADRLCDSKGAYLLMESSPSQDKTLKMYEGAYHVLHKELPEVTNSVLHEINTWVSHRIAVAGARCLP

[2] = Lipophilicity, logD of the compound by shake flask method; format: physicochemical; conditions: octanol/water
[3] = target: T1, Monoglyceride lipase (Rattus norvegicus); experiment: Binding affinity to MAGL in rat thalamus incubated for 1 hr in presence of MAGL inhibitor, (1-(4-fluorophenyl)-1H-indol-5-yl)(3-(4-(pyrimidin-2-yl)piperazin-1-yl)azetidin-1-yl)methanone by autoradiography; format: tissue-based; conditions: tested as the 18F-labelled form
[4] = target: T2, Lysophosphatidylserine lipase ABHD12 (Mus musculus) (UniProt Q99LR1); experiment: Displacement of FP-rhodamine from ABHD12 in mouse brain membrane fraction preincubated for 30 mins followed by FP-rhodhamine addition for 10 mins by Activity-Based Protein Profiling analysis; format: cell membranes; conditions: time 40.0 min
T2 sequence (whole entry): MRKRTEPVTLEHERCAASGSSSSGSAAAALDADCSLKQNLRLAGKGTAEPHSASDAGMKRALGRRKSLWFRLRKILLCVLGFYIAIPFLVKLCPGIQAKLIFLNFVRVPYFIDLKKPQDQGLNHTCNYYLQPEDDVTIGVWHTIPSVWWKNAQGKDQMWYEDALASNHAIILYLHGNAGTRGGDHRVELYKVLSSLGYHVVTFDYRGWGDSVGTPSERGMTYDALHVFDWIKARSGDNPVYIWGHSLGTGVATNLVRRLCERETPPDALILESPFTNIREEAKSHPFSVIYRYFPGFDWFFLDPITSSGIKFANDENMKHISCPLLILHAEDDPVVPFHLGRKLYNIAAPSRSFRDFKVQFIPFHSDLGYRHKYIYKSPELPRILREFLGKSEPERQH

[5] = target: T1, Monoglyceride lipase (Rattus norvegicus); experiment: Binding affinity to MAGL in rat striatum incubated for 1 hr in presence of MAGL inhibitor, (1-(4-fluorophenyl)-1H-indol-5-yl)(3-(4-(pyrimidin-2-yl)piperazin-1-yl)azetidin-1-yl)methanone by autoradiography; format: tissue-based; conditions: tested as the 18F-labelled form
[6] = target: T3, Fatty-acid amide hydrolase 1 (Mus musculus) (UniProt O08914); experiment: Displacement of FP-rhodamine from FAAH in mouse brain membrane fraction preincubated for 30 mins followed by FP-rhodhamine addition for 10 mins by Activity-Based Protein Profiling analysis; format: cell membranes; conditions: time 40.0 min
T3 sequence (whole entry): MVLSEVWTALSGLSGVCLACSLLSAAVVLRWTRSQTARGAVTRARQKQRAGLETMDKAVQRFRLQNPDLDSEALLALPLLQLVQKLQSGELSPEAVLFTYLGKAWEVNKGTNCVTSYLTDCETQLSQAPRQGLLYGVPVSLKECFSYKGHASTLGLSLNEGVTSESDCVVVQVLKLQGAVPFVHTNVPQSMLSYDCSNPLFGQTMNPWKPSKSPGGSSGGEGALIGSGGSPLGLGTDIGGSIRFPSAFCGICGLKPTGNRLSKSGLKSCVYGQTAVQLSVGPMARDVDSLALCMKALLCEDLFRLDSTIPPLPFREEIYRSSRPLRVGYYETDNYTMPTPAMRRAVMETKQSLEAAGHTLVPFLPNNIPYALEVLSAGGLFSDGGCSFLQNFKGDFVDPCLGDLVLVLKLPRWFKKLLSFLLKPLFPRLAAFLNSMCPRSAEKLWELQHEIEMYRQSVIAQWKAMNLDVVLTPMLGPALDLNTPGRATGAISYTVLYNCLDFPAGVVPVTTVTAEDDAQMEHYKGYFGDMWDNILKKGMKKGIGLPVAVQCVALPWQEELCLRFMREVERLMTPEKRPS

[7] = target: CaV1.2 (voltage-dependent L-type calcium channel subunit alpha-1C) (Homo sapiens, UniProt Q13936); experiment: Inhibition of human CaV1.2 at 10 uM
[8] = target: T1, Monoglyceride lipase (Rattus norvegicus); experiment: Binding affinity to MAGL in rat cortex incubated for 1 hr in presence of MAGL inhibitor, (1-(4-fluorophenyl)-1H-indol-5-yl)(3-(4-(pyrimidin-2-yl)piperazin-1-yl)azetidin-1-yl)methanone by autoradiography; format: tissue-based; conditions: tested as the 18F-labelled form
[9] = target: T4, Monoglyceride lipase (Mus musculus) (UniProt O35678); conditions: Brain, Membrane, dose 50.0 nM, time 35-210 min
T4 sequence (whole entry): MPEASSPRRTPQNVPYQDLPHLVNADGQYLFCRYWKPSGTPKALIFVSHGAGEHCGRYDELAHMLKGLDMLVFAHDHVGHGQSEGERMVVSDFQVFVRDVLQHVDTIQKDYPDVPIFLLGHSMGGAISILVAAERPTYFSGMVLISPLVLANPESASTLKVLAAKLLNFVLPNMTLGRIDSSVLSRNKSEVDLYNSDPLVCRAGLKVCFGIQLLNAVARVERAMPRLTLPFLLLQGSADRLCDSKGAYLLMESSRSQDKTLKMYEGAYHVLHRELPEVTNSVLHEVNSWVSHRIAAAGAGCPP

[10] = target: T5, Monoacylglycerol lipase ABHD6 (Mus musculus) (UniProt Q8R2Y0); experiment: Displacement of FP-rhodamine from ABHD6 in mouse brain membrane fraction preincubated for 30 mins followed by FP-rhodhamine addition for 10 mins by Activity-Based Protein Profiling analysis; format: cell membranes; conditions: time 40.0 min
T5 sequence (whole entry): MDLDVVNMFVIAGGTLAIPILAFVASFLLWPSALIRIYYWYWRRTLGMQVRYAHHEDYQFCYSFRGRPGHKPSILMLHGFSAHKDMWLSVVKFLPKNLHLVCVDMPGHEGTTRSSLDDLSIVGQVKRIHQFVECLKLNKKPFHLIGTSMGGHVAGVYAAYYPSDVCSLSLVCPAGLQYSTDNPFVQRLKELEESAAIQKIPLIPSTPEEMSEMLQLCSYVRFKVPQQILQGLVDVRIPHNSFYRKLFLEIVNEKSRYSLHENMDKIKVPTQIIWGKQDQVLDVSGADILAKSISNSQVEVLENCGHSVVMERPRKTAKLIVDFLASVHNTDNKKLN

hERG (KCNH2) = hERG (KCNH2) (Homo sapiens, UniProt Q12809); experiment: Inhibition of human ERG at 10 uM; format: toxicity
[11] = target: T6, Neutral cholesterol ester hydrolase 1 (Mus musculus) (UniProt Q8BLF1); experiment: Displacement of FP-rhodamine from KIAA1363 in mouse brain membrane fraction preincubated for 30 mins followed by FP-rhodhamine addition for 10 mins by Activity-Based Protein Profiling analysis; format: cell membranes; conditions: time 40.0 min
T6 sequence (whole entry): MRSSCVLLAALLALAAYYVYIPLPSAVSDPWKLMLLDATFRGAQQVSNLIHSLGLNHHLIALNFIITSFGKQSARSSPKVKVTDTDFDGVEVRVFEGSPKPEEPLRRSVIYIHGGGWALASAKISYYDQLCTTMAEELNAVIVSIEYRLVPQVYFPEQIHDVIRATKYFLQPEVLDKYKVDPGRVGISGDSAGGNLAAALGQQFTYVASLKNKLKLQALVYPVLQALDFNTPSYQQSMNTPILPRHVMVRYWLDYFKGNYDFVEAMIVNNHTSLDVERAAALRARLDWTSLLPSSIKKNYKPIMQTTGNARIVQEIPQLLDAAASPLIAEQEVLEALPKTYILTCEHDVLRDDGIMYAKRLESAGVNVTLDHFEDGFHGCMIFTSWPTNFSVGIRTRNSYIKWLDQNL

[12] = target: T1, Monoglyceride lipase (Rattus norvegicus); experiment: Binding affinity to MAGL in rat cerebellum incubated for 1 hr in presence of MAGL inhibitor, (1-(4-fluorophenyl)-1H-indol-5-yl)(3-(4-(pyrimidin-2-yl)piperazin-1-yl)azetidin-1-yl)methanone by autoradiography; format: tissue-based; conditions: tested as the 18F-labelled form

CaV1.2 (voltage-dependent L-type calcium channel subunit alpha-1C), sequence (Q13936 whole entry): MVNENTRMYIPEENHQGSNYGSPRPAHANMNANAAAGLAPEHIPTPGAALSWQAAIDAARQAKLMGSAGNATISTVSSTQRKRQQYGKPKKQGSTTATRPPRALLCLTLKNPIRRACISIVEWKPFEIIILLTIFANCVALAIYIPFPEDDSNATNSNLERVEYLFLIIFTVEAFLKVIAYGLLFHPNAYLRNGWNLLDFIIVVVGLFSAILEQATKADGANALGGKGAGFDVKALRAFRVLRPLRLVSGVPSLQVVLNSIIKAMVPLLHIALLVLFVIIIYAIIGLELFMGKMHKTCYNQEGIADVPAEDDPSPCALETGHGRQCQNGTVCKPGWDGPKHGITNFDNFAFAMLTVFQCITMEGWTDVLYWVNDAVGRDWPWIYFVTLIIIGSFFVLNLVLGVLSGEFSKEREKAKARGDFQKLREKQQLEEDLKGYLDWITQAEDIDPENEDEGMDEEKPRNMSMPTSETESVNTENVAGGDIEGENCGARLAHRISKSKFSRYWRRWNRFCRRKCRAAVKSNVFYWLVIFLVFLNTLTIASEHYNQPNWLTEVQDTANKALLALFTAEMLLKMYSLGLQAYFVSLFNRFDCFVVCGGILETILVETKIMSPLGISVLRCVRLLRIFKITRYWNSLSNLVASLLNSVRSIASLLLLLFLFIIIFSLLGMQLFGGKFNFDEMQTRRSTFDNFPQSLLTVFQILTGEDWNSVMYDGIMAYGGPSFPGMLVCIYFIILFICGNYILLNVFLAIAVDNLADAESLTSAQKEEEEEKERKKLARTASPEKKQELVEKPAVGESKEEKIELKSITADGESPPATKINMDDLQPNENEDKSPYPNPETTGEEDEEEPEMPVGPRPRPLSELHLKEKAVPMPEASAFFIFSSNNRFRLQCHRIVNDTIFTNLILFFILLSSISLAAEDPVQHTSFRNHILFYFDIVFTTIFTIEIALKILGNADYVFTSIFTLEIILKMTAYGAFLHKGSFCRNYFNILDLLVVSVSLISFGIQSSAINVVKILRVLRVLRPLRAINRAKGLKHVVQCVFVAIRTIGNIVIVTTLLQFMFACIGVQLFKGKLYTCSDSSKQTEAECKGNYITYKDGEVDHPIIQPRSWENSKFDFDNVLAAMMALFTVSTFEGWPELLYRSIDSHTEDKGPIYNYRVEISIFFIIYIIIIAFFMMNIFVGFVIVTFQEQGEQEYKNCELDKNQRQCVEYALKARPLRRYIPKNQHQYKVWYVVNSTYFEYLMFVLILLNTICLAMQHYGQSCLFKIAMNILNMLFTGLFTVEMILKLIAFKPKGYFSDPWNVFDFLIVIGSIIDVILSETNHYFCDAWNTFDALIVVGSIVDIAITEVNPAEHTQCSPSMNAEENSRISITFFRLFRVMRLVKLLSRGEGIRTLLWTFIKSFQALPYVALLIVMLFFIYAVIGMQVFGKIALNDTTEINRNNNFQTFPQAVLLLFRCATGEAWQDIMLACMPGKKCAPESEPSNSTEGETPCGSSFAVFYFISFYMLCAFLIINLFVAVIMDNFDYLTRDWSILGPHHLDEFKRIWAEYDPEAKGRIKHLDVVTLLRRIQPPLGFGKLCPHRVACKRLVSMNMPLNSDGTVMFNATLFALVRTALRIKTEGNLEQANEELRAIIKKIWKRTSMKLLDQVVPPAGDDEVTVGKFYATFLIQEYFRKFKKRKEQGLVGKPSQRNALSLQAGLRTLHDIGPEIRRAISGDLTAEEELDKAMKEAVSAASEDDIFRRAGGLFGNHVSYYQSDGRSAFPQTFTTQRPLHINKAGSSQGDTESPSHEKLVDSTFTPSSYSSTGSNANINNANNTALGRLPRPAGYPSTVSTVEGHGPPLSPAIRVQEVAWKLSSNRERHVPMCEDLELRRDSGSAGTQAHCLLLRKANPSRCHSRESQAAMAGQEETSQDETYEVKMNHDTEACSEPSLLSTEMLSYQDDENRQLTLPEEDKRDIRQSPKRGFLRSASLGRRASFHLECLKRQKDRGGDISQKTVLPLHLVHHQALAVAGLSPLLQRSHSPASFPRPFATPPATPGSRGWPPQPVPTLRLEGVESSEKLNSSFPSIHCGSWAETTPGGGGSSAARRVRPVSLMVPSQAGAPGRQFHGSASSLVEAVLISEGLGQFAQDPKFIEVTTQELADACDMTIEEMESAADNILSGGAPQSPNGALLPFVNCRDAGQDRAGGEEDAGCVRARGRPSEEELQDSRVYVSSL
hERG (KCNH2), sequence (Q12809 whole entry): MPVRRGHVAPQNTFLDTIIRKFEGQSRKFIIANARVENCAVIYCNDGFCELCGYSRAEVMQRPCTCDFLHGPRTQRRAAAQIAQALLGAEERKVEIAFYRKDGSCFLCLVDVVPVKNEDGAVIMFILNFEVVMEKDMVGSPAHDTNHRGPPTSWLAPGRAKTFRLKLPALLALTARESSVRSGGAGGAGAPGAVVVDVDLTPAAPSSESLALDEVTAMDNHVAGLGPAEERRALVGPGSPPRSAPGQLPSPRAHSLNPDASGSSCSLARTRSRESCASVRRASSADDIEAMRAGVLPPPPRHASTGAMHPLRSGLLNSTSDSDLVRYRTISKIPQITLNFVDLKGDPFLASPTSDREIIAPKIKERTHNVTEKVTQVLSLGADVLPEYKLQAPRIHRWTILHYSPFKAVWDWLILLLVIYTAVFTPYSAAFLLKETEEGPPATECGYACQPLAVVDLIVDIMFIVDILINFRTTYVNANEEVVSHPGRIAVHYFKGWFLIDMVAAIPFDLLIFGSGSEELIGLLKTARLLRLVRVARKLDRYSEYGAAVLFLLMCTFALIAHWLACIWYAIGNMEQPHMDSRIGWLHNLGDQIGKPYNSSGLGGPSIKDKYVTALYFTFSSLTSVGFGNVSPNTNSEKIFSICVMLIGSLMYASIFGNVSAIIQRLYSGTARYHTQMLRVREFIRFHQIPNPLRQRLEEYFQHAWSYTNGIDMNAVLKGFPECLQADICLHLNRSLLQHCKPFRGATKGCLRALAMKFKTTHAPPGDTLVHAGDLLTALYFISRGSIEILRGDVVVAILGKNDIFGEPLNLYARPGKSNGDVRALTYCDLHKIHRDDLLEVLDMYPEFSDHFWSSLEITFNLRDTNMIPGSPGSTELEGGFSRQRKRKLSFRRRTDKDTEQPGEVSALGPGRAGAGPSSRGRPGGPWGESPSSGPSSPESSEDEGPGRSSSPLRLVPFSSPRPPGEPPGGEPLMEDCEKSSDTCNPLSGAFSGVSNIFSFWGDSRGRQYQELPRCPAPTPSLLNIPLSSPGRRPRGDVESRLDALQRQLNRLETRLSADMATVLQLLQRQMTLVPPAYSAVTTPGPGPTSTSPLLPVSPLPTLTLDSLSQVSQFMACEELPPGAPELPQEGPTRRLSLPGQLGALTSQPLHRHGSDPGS

Row | SMILES | Activity [1] | logD [2] | Activity [3] | inhibition [4] | Activity [5] | inhibition [6] | inhibition at 10 µM [7] [%] | Activity [8] | inhibition [9] | inhibition [10] | inhibition at 10 µM (hERG (KCNH2)) [%] | inhibition [11] | Activity [12]
1 | O=C(c1ccc2c(ccn2-c2ccc(F)cc2)c1)N1CC(N2CCN(c3ncccn3)CC2)C1 | inactive | 3.68 | inactive | inactive | inactive | inactive | < 50 | inactive | Active | inactive | < 50 | inactive | inactive
2 | O=C(c1ccc2c(ccn2-c2ccc(F)cc2)c1)N1CC(N2CCN(C(=O)c3nccs3)CC2)C1 |  | 3.28 |  | inactive |  | inactive |  |  |  | inactive |  | inactive | 
